Patent US12358915B2, “METTL3 inhibitory compounds” (STORM THERAPEUTICS LTD., priority 2019, dated 2025)
Structures can show the parent of a compound that is named as a salt. Where two headings read alike, the source gives them in different places.

Biological target: T1, METTL3/14 (Homo sapiens, UniProt Q86U44)
T1 construct: The enzyme used was full-length his-tagged METTL3; His; made in house
Assay: METTL3/14 methyltransferase assay (METTL3_14 RFMS, RapidFire mass spectrometry);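 also: recombinant His-tagged METTL3 with FLAG-tagged METTL14 from baculovirus, SAH product quantified by mass spectrometry against isotope-labelled internal standards, 60 min at room temperature, scaled between no-RNA and DMSO-only wells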
Assay type: biochemical
Conditions: read-out: METTL3_14 RFMS IC50

[1] = 5 nM METTL3/14, 0.2 μM RNA substrate, 0.5 μM SAM, lower limit of the assay IC50=5 nM, Compounds 266-351
[2] = 5 nM METTL3/14, 0.2 μM RNA substrate, 0.5 μM SAM, lower limit of the assay IC50=5 nM, Compounds 63-265

T1 sequence (Q86U44 whole entry): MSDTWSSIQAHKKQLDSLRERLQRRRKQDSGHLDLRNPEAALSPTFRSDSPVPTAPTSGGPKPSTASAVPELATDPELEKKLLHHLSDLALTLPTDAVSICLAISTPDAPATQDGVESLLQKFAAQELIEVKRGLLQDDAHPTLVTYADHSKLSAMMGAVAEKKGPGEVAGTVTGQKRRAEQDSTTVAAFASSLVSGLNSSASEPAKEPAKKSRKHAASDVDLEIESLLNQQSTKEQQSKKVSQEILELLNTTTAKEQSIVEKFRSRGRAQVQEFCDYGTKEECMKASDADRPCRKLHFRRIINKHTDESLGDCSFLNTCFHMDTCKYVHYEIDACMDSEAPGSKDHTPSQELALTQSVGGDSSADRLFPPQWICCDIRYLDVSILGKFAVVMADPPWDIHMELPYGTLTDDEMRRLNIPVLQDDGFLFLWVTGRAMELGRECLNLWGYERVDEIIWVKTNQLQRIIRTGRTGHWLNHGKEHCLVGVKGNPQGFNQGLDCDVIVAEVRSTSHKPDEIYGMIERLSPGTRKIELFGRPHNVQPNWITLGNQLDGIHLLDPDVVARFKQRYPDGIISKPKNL
T1 sequence (Q9HCE5 whole entry partner): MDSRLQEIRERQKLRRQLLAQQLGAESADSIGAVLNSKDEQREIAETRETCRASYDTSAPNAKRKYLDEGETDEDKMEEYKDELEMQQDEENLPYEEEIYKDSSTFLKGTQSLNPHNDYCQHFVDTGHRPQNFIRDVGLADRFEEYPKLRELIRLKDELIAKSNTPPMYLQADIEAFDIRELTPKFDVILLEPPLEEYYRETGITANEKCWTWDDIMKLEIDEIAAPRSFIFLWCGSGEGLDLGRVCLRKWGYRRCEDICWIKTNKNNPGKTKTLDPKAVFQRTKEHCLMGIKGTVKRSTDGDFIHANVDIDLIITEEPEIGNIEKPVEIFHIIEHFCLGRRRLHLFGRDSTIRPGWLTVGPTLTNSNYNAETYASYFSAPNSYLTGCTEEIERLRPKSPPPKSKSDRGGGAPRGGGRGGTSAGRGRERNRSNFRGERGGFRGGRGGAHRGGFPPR

Structure (SMILES) | IC50 [1] [nM] | IC50 [2] [nM] | other results
O=C(NCc1cn2cc(CNC[C@@H]3C[C@H]4CC[C@@H]3C4)ccc2n1)c1cc(=O)n2ccccc2n1 [Compound 347, N-({6-[({[(1R,2R,4S)-bicyclo[2.2.1]heptan-2-yl]methyl}amino)methyl]imidazo[1,2-a]pyridin-2-yl}methyl)-4-oxo-4H-pyrido[1,2-a]pyrimidine-2-carboxamide] | 7.5 | – | –
O=C(NCc1cn2cc(CNC[C@H]3C[C@H]4CC[C@@H]3C4)ccc2n1)c1cc(=O)n2ccccc2n1 [Compound 348, N-({6-[({[(1R,2S,4S)-bicyclo[2.2.1]heptan-2-yl]methyl}amino)methyl]imidazo[1,2-a]pyridin-2-yl}methyl)-4-oxo-4H-pyrido[1,2-a]pyrimidine-2-carboxamide] | 9.02 | – | –
O=C(NCc1cn2cc(CN3CC4CC3CO4)ccc2n1)c1cc(=O)n2ccccc2n1 (stereo not shown) [Compound 349, N-{[6-({2-oxa-5-azabicyclo[2.2.1]heptan-5-yl}methyl)imidazo[1,2-a]pyridin-2-yl]methyl}-4-oxo-4H-pyrido[1,2-a]pyrimidine-2-carboxamide] | 303 | – | –
O=C(NCc1cn2cc(CN3CC4CCC3C4)ccc2n1)c1cc(=O)n2ccccc2n1 (stereo not shown) [Compound 350, N-{[6-({2-azabicyclo[2.2.1]heptan-2-yl}methyl)imidazo[1,2-a]pyridin-2-yl]methyl}-4-oxo-4H-pyrido[1,2-a]pyrimidine-2-carboxamide] | 56.2 | – | –
O=C(NCc1cn2cc(CN3CC4CCC3CC4)ccc2n1)c1cc(=O)n2ccccc2n1 [Compound 351, N-{[6-({2-azabicyclo[2.2.2]octan-2-yl}methyl)imidazo[1,2-a]pyridin-2-yl]methyl}-4-oxo-4H-pyrido[1,2-a]pyrimidine-2-carboxamide] | 24.1 | – | –
O=Cc1ccc2nc(CNC(=O)c3cc(=O)n4ccccc4n3)cn2c1 [Example 49, N-[(6-formylimidazo[1,2-a]pyridin-2-yl)methyl]-4-oxo-pyrido[1,2-a]pyrimidine-2-carboxamide] | – | – | IC50 (5 nM METTL3/14, 0.2 μM RNA substrate, 0.5 μM SAM, lower limit of the assay IC50=5 nM, Compounds 1-62): 1040 nM
CC1(C)CCN(Cc2ccc3nc(Cn4cc(-c5cc(Br)cc6[nH]ncc56)nn4)cn3c2)CC1 [Example 227, 6-bromo-4-[1-({6-[(4,4-dimethylpiperidin-1-yl)methyl]imidazo[1,2-a]pyridin-2-yl}methyl)-1H-1,2,3-triazol-4-yl]-1H-indazole] | – | 7.9 | –
CC(C)(C)[C@H]1COC[C@@H](c2ccc3nc(CNC(=O)c4cc(=O)n5ccccc5n4)cn3c2)N1 [Example 228, N-({6-[(3R,5S)-5-tert-butylmorpholin-3-yl]imidazo[1,2-a]pyridin-2-yl}methyl)-4-oxo-4H-pyrido[1,2-a]pyrimidine-2-carboxamide] | – | 239 | –
CC(C)(C)[C@@H]1COC[C@H](c2ccc3nc(CNC(=O)c4cc(=O)n5ccccc5n4)cn3c2)N1 [Example 229, N-({6-[(3S,5R)-5-tert-butylmorpholin-3-yl]imidazo[1,2-a]pyridin-2-yl}methyl)-4-oxo-4H-pyrido[1,2-a]pyrimidine-2-carboxamide] | – | 100 | –
O=C(NCc1cn2cc([C@H]3COC[C@@H](C4CCCCC4)N3)ccc2n1)c1cc(=O)n2ccccc2n1 [Example 230, N-({6-[(3S,5R)-5-cyclohexylmorpholin-3-yl]imidazo[1,2-a]pyridin-2-yl}methyl)-4-oxo-4H-pyrido[1,2-a]pyrimidine-2-carboxamide] | – | 81.3 | –
CC(C)(C)CN1CCOCC1c1ccc2nc(CNC(=O)c3cc(=O)n4ccccc4n3)cn2c1 (stereo not shown) [Example 232, N-({6-[4-(2,2-dimethylpropyl)morpholin-3-yl]imidazo[1,2-a]pyridin-2-yl}methyl)-4-oxo-4H-pyrido[1,2-a]pyrimidine-2-carboxamide] | – | 8370 | –
C[C@@H]1COC[C@H](c2ccc3nc(CNC(=O)c4cc(=O)n5ccccc5n4)cn3c2)N1 [Example 233, N-({6-[(3S,5R)-5-methylmorpholin-3-yl]imidazo[1,2-a]pyridin-2-yl}methyl)-4-oxo-4H-pyrido[1,2-a]pyrimidine-2-carboxamide] | – | 1390 | –
COc1cccc2c1OCC(c1ccc3nc(CNC(=O)c4cc(=O)n5ccccc5n4)cn3c1)NC2 (stereo not shown) [Example 234, N-{[6-(9-methoxy-2,3,4,5-tetrahydro-1,4-benzoxazepin-3-yl)imidazo[1,2-a]pyridin-2-yl]methyl}-4-oxo-4H-pyrido[1,2-a]pyrimidine-2-carboxamide] | – | 3440 | –
O=C(NCC1CCCCC1)c1ccc2nc(Cn3cc(-c4cccc5[nH]ncc45)nn3)cn2c1 [Example 249, N-(cyclohexylmethyl)-2-{[4-(1H-indazol-4-yl)-1H-1,2,3-triazol-1-yl]methyl}imidazo[1,2-a]pyridine-6-carboxamide] | – | 229 | –
CC(C)(C)CNCc1ccc2nc(Cn3cc(-c4cncc5[nH]ncc45)nn3)cn2c1 [Example 256, (2,2-dimethylpropyl)({2-[(4-{1H-pyrazolo[3,4-c]pyridin-4-yl}-1H-1,2,3-triazol-1-yl)methyl]imidazo[1,2-a]pyridin-6-yl}methyl)amine] | – | 246 | –
OCc1ccc2nc(Cn3cc(-c4cncc5[nH]ncc45)nn3)cn2c1 [Example 257, {2-[(4-{1H-pyrazolo[3,4-c]pyridin-4-yl}-1H-1,2,3-triazol-1-yl)methyl]imidazo[1,2-a]pyridin-6-yl}methanol] | – | 4440 | –
O=C(NCc1cn2cc([C@H]3COC[C@@H](C4CCCCC4)N3)ccc2n1)c1cc(=O)c2ccccc2o1 [Example 264, N-({6-[(3S,5R)-5-cyclohexylmorpholin-3-yl]imidazo[1,2-a]pyridin-2-yl}methyl)-4-oxo-4H-chromene-2-carboxamide] | – | 195 | –

Structure (SMILES) | IC50 [1] [nM] | IC50 [2] [nM] | other results
Cc1ccc2nc(Cn3cc(-c4cccc5[nH]nc(N)c45)nn3)cn2c1 [Example 272, 4-[1-[(6-methylimidazo[1,2-a]pyridin-2-yl)methyl]triazol-4-yl]-1H-indazol-3-amine] | 9020 | – | –
O=C(NCCO)c1cc(-c2cn(Cc3cn4cc(CNCC5CCC5)ccc4n3)nn2)c2cn[nH]c2c1 [Example 301] | 233 | – | –
CC(C)(C)CNCc1ccc2nc(Cn3cc(-c4cc(Cl)cc5[nH]ncc45)nn3)cn2c1 [Example 304, N-[[2-[[4-(6-chloro-1H-indazol-4-yl)triazol-1-yl]methyl]imidazo[1,2-a]pyridin-6-yl]methyl]-2,2-dimethyl-propan-1-amine] | 6.1 | – | –
NC1(CNCc2ccc3nc(Cn4cc(-c5ccc(F)c6[nH]ncc56)nn4)cn3c2)CCCC1 [Example 309, 1-[[[2-[[4-(7-fluoro-1H-indazol-4-yl)triazol-1-yl]methyl]imidazo[1,2-a]pyridin-6-yl]methylamino]methyl]cyclopentanamine] | 120 | – | –
CC1(C)CCN(Cc2ccc3nc(CNC(=O)c4cc(=O)c5c(F)cccc5o4)cn3c2)CC1 [Example 310, N-[[6-[(4,4-dimethyl-1-piperidyl)methyl]imidazo[1,2-a]pyridin-2-yl]methyl]-5-fluoro-4-oxo-chromene-2-carboxamide] | 186 | – | –
CC1(C)CCN(Cc2ccc3nc(CNC(=O)c4cc(OCCOCCN)cc5[nH]ncc45)cn3c2)CC1 [Example 312, 6-[2-(2-aminoethoxy)ethoxy]-N-[[6-[(4,4-dimethyl-1-piperidyl)methyl]imidazo[1,2-a]pyridin-2-yl]methyl]-1H-indazole-4-carboxamide trihydrochloride] | 52.1 | – | –
O=C(NCc1cn2cc(C(Cc3ccccc3)N(CC3CCC3)CC3CCC3)ccc2n1)c1cc(=O)n2ccccc2n1 (stereo not shown) [Example 314] | – | – | IC50: 7110 nM
OCc1ccc2nc(Cn3cc(-c4cc(F)cc5[nH]ncc45)nn3)cn2c1 [Example 317, [2-[[4-(6-fluoro-1H-indazol-4-yl)triazol-1-yl]methyl]imidazo[1,2-a]pyridin-6-yl]methanol] | 462 | – | –
CC(C)(C)CNCc1ccc2nc(Cn3cc(-c4cc(C5CC5)cc5[nH]ncc45)nn3)cn2c1 [Example 321, N-[[2-[[4-(6-cyclopropyl-1H-indazol-4-yl)triazol-1-yl]methyl]imidazo[1,2-a]pyridin-6-yl]methyl]-2,2-dimethyl-propan-1-amine] | 13.2 | – | –
Cc1ccc2nc(Cn3cnc(-c4cccc5[nH]ncc45)c3)cn2c1 [Example 329, 2-[[4-(1H-indazol-4-yl)imidazol-1-yl]methyl]-6-methyl-imidazo[1,2-a]pyridine formate] | 1640 | – | –
CC1CNC(c2ccc3nc(CNC(=O)c4cc(=O)n5ccccc5n4)cn3c2)CO1 (stereo not shown) [Example 331] | 3440 | – | –
COc1cc(Br)cc2c1OCC(c1ccc3nc(CNC(=O)c4cc(=O)n5ccccc5n4)cn3c1)NC2 (stereo not shown) [Example 332] | 1700 | – | –
O=C(NCc1cn2cc(C3CNCCN3)ccc2n1)c1cc(=O)n2ccccc2n1 (stereo not shown) [Example 333, 4-oxo-N-[(6-piperazin-2-ylimidazo[1,2-a]pyridin-2-yl)methyl]pyrido[1,2-a]pyrimidine-2-carboxamide] | 1230 | – | –
Cc1ccc2nc(C(C)(O)c3cnc(-c4cccc5[nH]ncc45)s3)cn2c1 (stereo not shown) [Example 335, 1-[2-(1H-indazol-4-yl)thiazol-5-yl]-1-(6-methylimidazo[1,2-a]pyridin-2-yl)ethanol] | 7290 | – | –
c1cc(-n2cc(Cc3cn4ccccc4n3)nn2)c2cn[nH]c2c1 [Example 336, 4-(4-(imidazo[1,2-a]pyridin-2-ylmethyl)-1H-1,2,3-triazol-1-yl)-1H-indazole] | 4160 | – | –
CC(=O)N(Cc1ccc2nc(CNC(=O)c3cc(=O)n4ccccc4n3)cn2c1)CC1CCC1 [Example 340, N-[(6-{[N-(cyclobutylmethyl)acetamido]methyl}imidazo[1,2-a]pyridin-2-yl)methyl]-4-oxo-4H-pyrido[1,2-a]pyrimidine-2-carboxamide] | 6810 | – | –
c1cc(-c2ncn(Cc3cn4cc(CNCC5CCC5)ccc4n3)n2)c2cn[nH]c2c1 [Example 341, N-(cyclobutylmethyl)-1-[2-[[3-(1H-indazol-4-yl)-1,2,4-triazol-1-yl]methyl]imidazo[1,2-a]pyridin-6-yl]methanamine] | 64.4 | – | –
